Reference: article PMC6220894 (Food and chemical toxicology : an international journal …, 2018)
Read-outs that look alike come from different tables or passages of the source.

Columns and labels:
[1] = tested on: Salmonella typhimurium TA 1535; format: cell-based; conditions: plate incorporation
[2] = tested on: Salmonella typhimurium TA 102; experiment: Ames bacterial reverse mutation assay, pre-incubation method; format: cell-based
[3] = tested on: Salmonella typhimurium TA 98; experiment: Ames bacterial reverse mutation assay, plate incorporation method; format: cell-based
[4] = tested on: Salmonella typhimurium TA 1537; experiment: as above; format: cell-based
[5] = tested on: Salmonella typhimurium TA 102; experiment: as above; format: cell-based
[6] = tested on: Salmonella typhimurium TA 100; format: cell-based; conditions: pre-incubation
[7] = tested on: Salmonella typhimurium TA 98; experiment: Ames bacterial reverse mutation assay, pre-incubation method; format: cell-based
[8] = tested on: Salmonella typhimurium TA 1535; format: cell-based; conditions: pre-incubation
[9] = tested on: Salmonella typhimurium TA 1537; experiment: Ames bacterial reverse mutation assay, pre-incubation method; format: cell-based
[10] = tested on: Salmonella typhimurium TA 100; format: cell-based; conditions: plate incorporation
[11] = tested on: plasma protein; conditions: human plasma; 1 µM; mean ± SE
[12] = in vitro; conditions: both, human, plasma, pH 7.4
[13] = +S9, positive control 0.0025 mg/plate
[14] = +S9, positive control 0.01 mg/plate
[15] = −S9, positive control 0.01 mg/plate
[16] = −S9, positive control 0.05 mg/plate
[17] = −S9, positive control 4 µL/plate

Nc1ccc2cc3ccccc3cc2c1 [2-aminoanthracene, reference compound]
Mean plate counts (revertant colonies) [1, 13]: 150.0±12.5 | Mean plate counts (revertant colonies) [2, 14]: 1395.3±153.1 | Mean plate counts (revertant colonies) [3, 13]: 741.3±63.8 | Mean plate counts (revertant colonies) [4, 13]: 133.3±8.1 | Mean plate counts (revertant colonies) [5, 14]: 1716.7±134.6 | Mean plate counts (revertant colonies) [6, 13]: 1118.0±42.6 | Mean plate counts (revertant colonies) [7, 13]: 958.0±83.6 | Mean plate counts (revertant colonies) [8, 13]: 132.7±9.9 | Mean plate counts (revertant colonies) [9, 13]: 125.0±5.0 | Mean plate counts (revertant colonies) [10, 13]: 1042.0±61.3

Nc1ccc([N+](=O)[O-])cc1N [4-NOPD, 4-nitro-o-phenylenediamine, reference compound]
Mean plate counts (revertant colonies) [3, 15]: 296.0±8.0 | Mean plate counts (revertant colonies) [4, 16]: 107.0±6.2 | Mean plate counts (revertant colonies) [7, 15]: 674.0±34.7 | Mean plate counts (revertant colonies) [9, 16]: 120.0±12.0

COc1ccc(CCN(C)CCCC(C#N)(c2ccc(OC)c(OC)c2)C(C)C)cc1OC (stereo not shown) [Verapamil, reference compound]
fb (bound fraction) [11]: 0.907 ± 0.007

CC(=O)CC(c1ccccc1)c1c(O)c2ccccc2oc1=O (stereo not shown) [Warfarin, reference compound]
fraction unbound at 4 h, 1 µM [12]: 0.035 ± 0.003

COS(C)(=O)=O [methyl methanesulphonate, methyl methanesulfonate, reference compound]
Mean plate counts (revertant colonies) [2, 17]: 1238.7±126.0 | Mean plate counts (revertant colonies) [5, 17]: 2510.7±123.6

[N-]=[N+]=[N-].[Na+] [sodium azide, reference compound]
Mean plate counts (revertant colonies) [1, 15]: 966.7±12.2 | Mean plate counts (revertant colonies) [6, 15]: 1181.3±50.6 | Mean plate counts (revertant colonies) [8, 15]: 974.7±41.1 | Mean plate counts (revertant colonies) [10, 15]: 870.7±39.3
